Results reported in PubChem BioAssay AID248 (DTP/NCI, 2004).
Several values for one entry are separate records, joined by “and”; a condition that tells them apart may be missing. Equal entries are not always repeated. Inconclusive results and toxic doses are left out. No stated cut-off is given here; in the data, active means T/C of 150% or more; inactive means T/C below 125%.

Test system: L1210 leukemia ip in BDF1 mice, survival T/C
Assay: NCI In Vivo Anticancer Drug Screen. Data for tumor model L1210 Leukemia (intraperitoneal) in B6D2F1 (BDF1) mice
Conditions: endpoint: mean survival time, higher = longer survival
Procedure, shortened: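 Antitumor effect is assessed in tumor-bearing animals. Survival in the compound arm is compared with a vehicle-dosed control arm and expressed as their quotient.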

[1] = dose: 100.0 mg/kg/injection, schedule: Q04DX003 (ip), vehicle: Klucel (hydroxypropylcellulose) (HPC)
[2] = dose: 200.0 mg/kg/injection, schedule: Q04DX003 (ip), vehicle: Klucel (hydroxypropylcellulose) (HPC)
[3] = dose: 400.0 mg/kg/injection, schedule: Q04DX003 (ip), vehicle: Klucel (hydroxypropylcellulose) (HPC)
[4] = dose: 100.0 mg/kg/injection, schedule: Q04DX003 (ip), vehicle: saline with Tween-80
[5] = dose: 200.0 mg/kg/injection, schedule: Q04DX003 (ip), vehicle: saline with Tween-80
[6] = dose: 400.0 mg/kg/injection, schedule: Q04DX003 (ip), vehicle: saline with Tween-80
[7] = dose: 100.0 mg/kg/injection, schedule: Q01DX001 (ip), vehicle: carboxymethylcellulose (CMC)
[8] = dose: 200.0 mg/kg/injection, schedule: Q01DX001 (ip), vehicle: carboxymethylcellulose (CMC)
[9] = dose: 400.0 mg/kg/injection, schedule: Q01DX001 (ip), vehicle: carboxymethylcellulose (CMC)
[10] = dose: 25.0 mg/kg/injection, schedule: Q01DX009 (ip), vehicle: Klucel (hydroxypropylcellulose) (HPC)
[11] = dose: 50.0 mg/kg/injection, schedule: Q01DX009 (ip), vehicle: Klucel (hydroxypropylcellulose) (HPC)

Measured: T/C

COc1ccc(C(=O)Nc2ccc([N+](=O)[O-])cc2O)cc1
inactive: [1] 103 % of control | [2] 104 % of control | [3] 97 % of control

OC1(Cc2ccccc2)CCCCC1
inactive: dose: 100.0 mg/kg/injection, schedule: Q01DX001 (ip), vehicle: other 102 % of control | [4] 102 % of control | dose: 200.0 mg/kg/injection, schedule: Q01DX001 (ip), vehicle: other 110 % of control | [5] 104 % of control | dose: 400.0 mg/kg/injection, schedule: Q01DX001 (ip), vehicle: other 118 % of control | [6] 102 % of control

c1nc(NCCc2cnc[nH]2)c2[nH]cnc2n1
inactive: [7] 95 % of control | [8] 90 % of control | [9] 97 % of control

O=C1NCN(c2ccccc2)C12CCN(Cc1nc3cc([N+](=O)[O-])ccc3n1-c1ccccc1)CC2
inactive: dose: 100.0 mg/kg/injection, schedule: Q01DX001 (ip), vehicle: Klucel (hydroxypropylcellulose) (HPC) 86 % of control | dose: 200.0 mg/kg/injection, schedule: Q01DX001 (ip), vehicle: Klucel (hydroxypropylcellulose) (HPC) 93 % of control | dose: 400.0 mg/kg/injection, schedule: Q01DX001 (ip), vehicle: Klucel (hydroxypropylcellulose) (HPC) 99 % of control

O=C(Nc1ccc(S(=O)(=O)O)cc1)c1ccc(C(=O)Nc2ccc(S(=O)(=O)O)cc2)cc1
inactive: dose: 30.0 mg/kg/injection, schedule: Q01DX Z (ip), vehicle: saline 91 % of control | dose: 60.0 mg/kg/injection, schedule: Q01DX Z (ip), vehicle: saline 97 % of control | dose: 120.0 mg/kg/injection, schedule: Q01DX Z (ip), vehicle: saline 93 % of control

Cc1ccc([N+](=O)[O-])cc1NC(=O)Nc1cccc(C(F)(F)F)c1
inactive: [10] 102 % of control | [11] 92 % of control | dose: 100.0 mg/kg/injection, schedule: Q01DX009 (ip), vehicle: Klucel (hydroxypropylcellulose) (HPC) 86 % of control | dose: 200.0 mg/kg/injection, schedule: Q01DX009 (ip), vehicle: Klucel (hydroxypropylcellulose) (HPC) 87 % of control | dose: 400.0 mg/kg/injection, schedule: Q01DX009 (ip), vehicle: Klucel (hydroxypropylcellulose) (HPC) 87 % of control

C/C=C/CC1(CC(C)C)C(=O)NC(=S)NC1=O
inactive: dose: 75.0 mg/kg/injection, schedule: Q01DX001 (ip), vehicle: saline 102 % of control | dose: 150.0 mg/kg/injection, schedule: Q01DX001 (ip), vehicle: saline 94 % of control | dose: 300.0 mg/kg/injection, schedule: Q01DX001 (ip), vehicle: saline 99 % of control

Cn1c(=O)c2c(ncn2CC(O)CO)n(C)c1=O (centres undefined) (tested in a mixture with another compound)
inactive: [4] 101 % of control | [5] 98 % of control | [6] 95 % of control

NC(Cc1c[nH]c2ccc(O)cc12)C(=O)O (centres undefined)
inactive: [7] 95 % of control | [8] 102 % of control | [9] 100 % of control

CSc1ccc(OC(=O)Nc2cccc3ccccc23)cc1C
inactive: dose: 100.0 mg/kg/injection, schedule: Q04DX002 (ip), vehicle: Klucel (hydroxypropylcellulose) (HPC) 101 % of control | dose: 200.0 mg/kg/injection, schedule: Q04DX002 (ip), vehicle: Klucel (hydroxypropylcellulose) (HPC) 101 % of control | dose: 400.0 mg/kg/injection, schedule: Q04DX002 (ip), vehicle: Klucel (hydroxypropylcellulose) (HPC) 104 % of control

CCOC(=O)c1ccccc1N(O)C(=O)Nc1ccc(Cl)cc1
inactive: [4] 100 % of control | [5] 105 % of control | [6] 103 % of control

CC1(C)CC(=O)CC(=C2C(=O)NC(=O)NC2=O)C1
inactive: [7] 89 % of control | dose: 100.0 mg/kg/injection, schedule: Q01DX002 (ip), vehicle: saline with Tween-80 92 % of control | dose: 100.0 mg/kg/injection, schedule: Q04DX002 (ip), vehicle: saline with Tween-80 103 % of control | [8] 92 % of control | dose: 200.0 mg/kg/injection, schedule: Q01DX002 (ip), vehicle: saline with Tween-80 98 % of control | dose: 200.0 mg/kg/injection, schedule: Q04DX002 (ip), vehicle: saline with Tween-80 111 % of control | [9] 87 % of control | dose: 400.0 mg/kg/injection, schedule: Q01DX002 (ip), vehicle: saline with Tween-80 95 % of control | dose: 400.0 mg/kg/injection, schedule: Q04DX002 (ip), vehicle: saline with Tween-80 100 % of control

S=c1cc(-c2cccs2)ss1
inactive: dose: 50.0 mg/kg/injection, schedule: Q01DX009 (ip), vehicle: saline 107 % of control | dose: 100.0 mg/kg/injection, schedule: Q01DX009 (ip), vehicle: saline 96 % of control and 91 % of control | dose: 100.0 mg/kg/injection, schedule: Q04DX003 (ip), vehicle: saline 93 % of control | dose: 200.0 mg/kg/injection, schedule: Q01DX009 (ip), vehicle: saline 93 % of control and 91 % of control | dose: 200.0 mg/kg/injection, schedule: Q04DX003 (ip), vehicle: saline 105 % of control | dose: 300.0 mg/kg/injection, schedule: Q01DX009 (ip), vehicle: saline 95 % of control | dose: 400.0 mg/kg/injection, schedule: Q01DX009 (ip), vehicle: saline 98 % of control | dose: 400.0 mg/kg/injection, schedule: Q04DX003 (ip), vehicle: saline 88 % of control

Cc1nonc1C(=O)N(C)C
inactive: dose: 25.0 mg/kg/injection, schedule: Q04DX002 (ip), vehicle: saline 98 % of control | dose: 50.0 mg/kg/injection, schedule: Q04DX002 (ip), vehicle: saline 102 % of control | dose: 100.0 mg/kg/injection, schedule: Q04DX002 (ip), vehicle: saline 102 % of control

NC(N)=N/N=C(/CCC(=O)O)C(=O)O
inactive: dose: 15.0 mg/kg/injection, schedule: Q01DX Z (ip), vehicle: carboxymethylcellulose (CMC) 100 % of control | dose: 30.0 mg/kg/injection, schedule: Q01DX Z (ip), vehicle: carboxymethylcellulose (CMC) 107 % of control | dose: 60.0 mg/kg/injection, schedule: Q01DX Z (ip), vehicle: carboxymethylcellulose (CMC) 100 % of control and 104 % of control | dose: 60.0 mg/kg/injection, schedule: Q01DX Z (oral), vehicle: carboxymethylcellulose (CMC) 104 % of control | dose: 60.0 mg/kg/injection, schedule: Q01DX Z (oral), vehicle: saline 95 % of control | dose: 120.0 mg/kg/injection, schedule: Q01DX Z (ip), vehicle: carboxymethylcellulose (CMC) 101 % of control and 106 % of control | dose: 120.0 mg/kg/injection, schedule: Q01DX Z (oral), vehicle: carboxymethylcellulose (CMC) 98 % of control | dose: 120.0 mg/kg/injection, schedule: Q01DX Z (oral), vehicle: saline 96 % of control | dose: 240.0 mg/kg/injection, schedule: Q01DX Z (ip), vehicle: carboxymethylcellulose (CMC) 98 % of control | dose: 240.0 mg/kg/injection, schedule: Q01DX Z (oral), vehicle: carboxymethylcellulose (CMC) 107 % of control | dose: 240.0 mg/kg/injection, schedule: Q01DX Z (oral), vehicle: saline 98 % of control | dose: 480.0 mg/kg/injection, schedule: Q01DX Z (oral), vehicle: carboxymethylcellulose (CMC) 98 % of control | dose: 480.0 mg/kg/injection, schedule: Q01DX Z (oral), vehicle: saline 98 % of control | dose: 960.0 mg/kg/injection, schedule: Q01DX Z (oral), vehicle: carboxymethylcellulose (CMC) 98 % of control and 113 % of control | dose: 960.0 mg/kg/injection, schedule: Q01DX Z (oral), vehicle: saline 101 % of control

c1ccc(-c2nc3cnccc3o2)cc1
inactive: dose: 12.5 mg/kg/injection, schedule: Q01DX009 (ip), vehicle: Klucel (hydroxypropylcellulose) (HPC) 92 % of control | [10] 94 % of control | [11] 94 % of control | [1] 106 % of control | [2] 99 % of control | [3] 94 % of control
